The record followed here is patent US8889733B2, “Artonin I to treat resistant infectious Staphylococcus aureus” (priority 2013, dated 2014).

The subject of one test is EMRSA-17. Description: Reversal of Multi-Drug Resistance (MIC/FIC of antibiotics combined with compound 1). Format: cell-based, Staphylococcus aureus. As to conditions: for FIC (s): FIC (a) + FIC (b), antibiotic plus Compound 1; for FIC (b): FIC of Compound 1 in combination with the antibiotic named as label; for MIC: Staphylococcus aureus, read-out: MIC (a); for MIC / MIC (a): antibiotic alone; for FIC (a): FIC of the antibiotic = MIC in combination with Compound 1 / MIC alone. The protocol: (§1) Assay Protocol: Protocol of Chung et al, (2001), with slight modifications, was followed. 5×10 MDR S. aureus cells were treated with 20 μg/mL of test compounds and incubated for 20 hours. Control cells were not exposed to any test compound and antibiotic. In 96-well plate, increasing concentration of antibiotics, along with the fixed concentration of test compounds were added. Inoculum of 5×10^5 cells was applied to all wells. The presence or absence of growth in all combination wells were noted visually and by using the dye Alamar blue.
(§2) Fractional inhibitory concentrations were calculated by the above cited formulae. • FIC of Antibiotic a (FICa)=MIC of Antibiotic a in combination/MIC of antibiotic a alone • FIC of Compound b (FICb)=MIC of Compound b in combination/MIC of compound b alone
(§3) The sum of Fractional Inhibitory Concentration (FICs) index of: (FICa)+(FICb)=(FICs)

The next test deals with Clinical Isolates. The description is as above. Format: cell-based, Staphylococcus aureus. To be noted: for MIC: Staphylococcus aureus, read-out: MIC (a); for MIC / MIC (a): antibiotic alone; for FIC (s): FIC (a) + FIC (b), antibiotic plus Compound 1; for FIC (b): FIC of Compound 1 in combination with the antibiotic named as label; for FIC (a): FIC of the antibiotic = MIC in combination with Compound 1 / MIC alone. The protocol: as §1, §2, §3

The mark [1] stands for this setting: antibiotic in combination with Compound 1.
The mark [2] stands for this setting: antibiotic in combination with Compound 1, listed as clindamycin.

Consider `NCC[C@H](O)C(=O)N[C@@H]1C[C@H](N)[C@@H](O[C@H]2O[C@H](CN)[C@@H](O)[C@H](O)[C@H]2O)[C@H](O)[C@H]1O[C@H]1O[C@H](CO)[C@@H](O)[C@H](N)[C@H]1O` [Amikacin], for which, in the test on EMRSA-17, the FIC (s) worked out at 0.351 and the FIC (b) was 0.32. Also, in the test on EMRSA-17 (setting [1]), the Effect result is recorded as “Synergistic” and the “MIC (a + b)” value turned out to be 8 µg/mL. Besides, the MIC with Clinical Isolates was determined as 128 µg/mL. The Effect entry in the test on Clinical Isolates (setting [1]) is given as “Partial”.
As to `O=C(N[C@H](CO)[C@H](O)c1ccc([N+](=O)[O-])cc1)C(Cl)Cl` [Chloramphenicol], in the test on EMRSA-17, the FIC (s) was determined as 0.328, the FIC (b) worked out at 0.32 and the minimum inhibitory concentration (MIC) was 1020 µg/mL. Besides, in the test with EMRSA-17 (setting [1]), the Effect result is recorded as “Synergistic” and the “MIC (a + b)” value amounted to 8 µg/mL. The MIC in the test on Clinical Isolates was determined as 1020 µg/mL. In the test on Clinical Isolates (setting [1]), the Effect entry was “Synergistic” and the “MIC (a + b)” value stood at 8 µg/mL.
Take `O=C(O)c1cn(C2CC2)c2cc(N3CCNCC3)c(F)cc2c1=O` [Ciprofloxacin]: in the test on EMRSA-17, the FIC (s) was 0.164 and the FIC (b) was found to be 0.16. Moreover, in the test with EMRSA-17 (setting [1]), the Effect result is “Synergistic” and the “MIC (a + b)” value came out at 4 µg/mL.
Turning to `CCC[C@@H]1C[C@@H](C(=O)N[C@@H]([C@H]2O[C@H](SC)[C@H](O)[C@@H](O)[C@H]2O)[C@H](C)Cl)N(C)C1` [Clindamicin], the FIC (s) with EMRSA-17 was found to be 0.322. Besides, the FIC (b) in the test with EMRSA-17 is 0.32. Also, the “MIC (a)” value with EMRSA-17 came out at 4096 µg/mL; in the test on EMRSA-17 (listed as clindamycin), 1024 µg/mL; with Clinical Isolates, 4096 µg/mL. Also, the Effect entry in the test on EMRSA-17 (setting [1]) was “Synergistic”; in the test on Clinical Isolates (setting [1]), “Synergistic”; in the test with Clinical Isolates (setting [2]) it was “partial synergistic activity”. In addition, the results for the “MIC (a + b)” value in the test on EMRSA-17 (setting [1]), in the test on Clinical Isolates (setting [1]) and in the test on Clinical Isolates (setting [2]) were 8 µg/mL, 16 µg/mL and 8 µg/mL, respectively.
With `CC[C@H]1OC(=O)[C@H](C)[C@@H](O[C@H]2C[C@@](C)(OC)[C@@H](O)[C@H](C)O2)[C@H](C)[C@@H](O[C@@H]2O[C@H](C)C[C@H](N(C)C)[C@H]2O)[C@](C)(O)C[C@@H](C)C(=O)[C@H](C)[C@@H](O)[C@]1(C)O` [Erythromycin], in the test on EMRSA-17, the FIC (s) turned out to be 0.324, the FIC (b) worked out at 0.32 and the minimal inhibitory concentration (MIC) stood at 1020 µg/mL. For the same molecule, in the test with EMRSA-17 (setting [1]), the Effect entry is listed as “Synergistic” and the “MIC (a + b)” value was found to be 8 µg/mL. For the same molecule, in the test with Clinical Isolates, the minimal inhibitory concentration (MIC) was 2050 µg/mL. Besides, in the test on Clinical Isolates (setting [1]), the Effect result is “Synergistic” and the “MIC (a + b)” value came out at 8 µg/mL.
For `Cc1onc(-c2ccccc2)c1C(=O)N[C@@H]1C(=O)N2[C@@H]1SC(C)(C)[C@@H]2C(=O)O` [Oxacillin], in the test with EMRSA-17, the FIC (s) stood at 0.0809, the FIC (b) was determined as 0.08 and the MIC stood at 4100 µg/mL. In the test with EMRSA-17 (setting [1]), the Effect result was “Synergistic” and the “MIC (a + b)” value came out at 2 µg/mL. Besides, the MIC in the test on Clinical Isolates came to 2080 µg/mL. Also, the Effect entry in the test on Clinical Isolates (setting [1]) is reported as “Synergistic”.
Regarding `[H]/N=C(/N)N[C@H]1[C@H](O)[C@@H](O)[C@H](O[C@@H]2O[C@@H](C)[C@](O)(C=O)[C@H]2O[C@@H]2O[C@@H](CO)[C@H](O)[C@@H](O)[C@@H]2NC)[C@@H](N/C(N)=N\[H])[C@@H]1O` [Streptomycin], in the test on EMRSA-17, the FIC (s) amounted to 0.647, the FIC (b) stood at 0.64 and the MIC was 2080 µg/mL. Moreover, in the test on EMRSA-17 (setting [1]), the Effect entry is recorded as “Partial” and the “MIC (a + b)” value is 16 µg/mL. Also, the Effect entry with EMRSA-17 (antibiotic in combination with Compound 1, listed as streptomycin) is listed as “partial synergistic effect”. Moreover, the minimum inhibitory concentration (MIC) in the test on Clinical Isolates was 2050 µg/mL. In addition, the Effect result with Clinical Isolates (setting [1]) is given as “Synergistic”.
`Cc1cc(NS(=O)(=O)c2ccc(N)cc2)no1` [Sulfamethoxazole]: in the test on EMRSA-17, the FIC (s) worked out at 0.324, the FIC (b) turned out to be 0.32 and the MIC is 2080 µg/mL. In the test on EMRSA-17 (setting [1]), the Effect entry is given as “Synergistic” and the “MIC (a + b)” value worked out at 8 µg/mL. Besides, in the test with Clinical Isolates, the MIC turned out to be 2050 µg/mL. In addition, in the test with Clinical Isolates (setting [1]), the Effect result is reported as “Synergistic”.
In the case of Gentamicin, in the test with EMRSA-17, the FIC (s) worked out at 0.164, the FIC (b) was found to be 0.16, the “FIC (a)” value was 0.0039 and the “MIC (a)” value was 512 µg/mL. For the same molecule, in the test on EMRSA-17 (setting [1]), the Effect entry was “Synergistic” and the “MIC (a + b)” value amounted to 4 µg/mL. In addition, in the test with Clinical Isolates, the “FIC (s)” value is recorded as 0.3356, the “FIC (b)” value is listed as 0.320, the “FIC (a)” value amounted to 0.0156 and the “MIC (a)” value worked out at 512 µg/mL. In addition, in the test with Clinical Isolates (setting [1]), the Effect entry is recorded as “Synergistic” and the “MIC (a + b)” value worked out at 8 µg/mL.
Regarding Neomycin, in the test on EMRSA-17, the FIC (s) was found to be 0.336, the FIC (b) came to 0.32, the “FIC (a)” value amounted to 0.1562 and the “MIC (a)” value stood at 512 µg/mL. In addition, the “MIC (a)” value in the test on EMRSA-17 (listed as neomycin) worked out at 256 µg/mL. Besides, in the test with EMRSA-17 (setting [1]), the Effect entry is recorded as “Synergistic” and the “MIC (a + b)” value worked out at 8 µg/mL. Besides, in the test with Clinical Isolates, the “FIC (b)” value amounted to 0.320 and the “FIC (a)” value came to 0.0078. Further, in the test on Clinical Isolates (setting [1]), the Effect entry was “Synergistic” and the “MIC (a + b)” value was determined as 8 µg/mL.
On to Penicillin, for which, in the test with EMRSA-17, the FIC (s) turned out to be 0.164, the FIC (b) worked out at 0.16, the “FIC (a)” value was found to be 0.0039 and the “MIC (a)” value was determined as 2084 µg/mL. Also, in the test with EMRSA-17 (setting [1]), the Effect result is “Synergistic” and the “MIC (a + b)” value was 4 µg/mL. Also, in the test with Clinical Isolates, the “FIC (s)” value is listed as 0.3238, the “FIC (b)” value is recorded as 0.320, the “FIC (a)” value is reported as 0.0038 and the “MIC (a)” value worked out at 2084 µg/mL. Besides, in the test with Clinical Isolates (setting [1]), the Effect result is listed as “Synergistic” and the “MIC (a + b)” value was 8 µg/mL.
